How the values were obtained:
[1] = biological target: T1, Cholesteryl ester transfer protein (Homo sapiens, UniProt P11597); assay: Inhibition of human CETP by scintillation proximity assay
T1 sequence (P11597 whole entry): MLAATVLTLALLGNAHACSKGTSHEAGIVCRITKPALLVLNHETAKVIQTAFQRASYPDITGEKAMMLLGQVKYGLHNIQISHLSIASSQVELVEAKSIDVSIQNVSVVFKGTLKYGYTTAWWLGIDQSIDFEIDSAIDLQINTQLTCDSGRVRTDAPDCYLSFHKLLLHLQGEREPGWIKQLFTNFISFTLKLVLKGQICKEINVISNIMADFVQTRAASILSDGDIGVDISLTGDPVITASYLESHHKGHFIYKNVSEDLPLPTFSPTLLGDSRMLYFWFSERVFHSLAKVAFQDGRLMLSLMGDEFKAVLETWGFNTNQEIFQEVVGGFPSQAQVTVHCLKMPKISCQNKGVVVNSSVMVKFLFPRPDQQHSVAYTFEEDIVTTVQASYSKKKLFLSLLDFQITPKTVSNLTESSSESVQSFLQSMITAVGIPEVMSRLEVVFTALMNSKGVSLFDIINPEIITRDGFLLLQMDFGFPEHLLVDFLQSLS

[2] = biological target: T1, Cholesteryl ester transfer protein; assay: Inhibition of CETP in human whole plasma

| IC50 [1] | IC50 [2] | Structure (SMILES) |
| --- | --- | --- |
| > 10000 nM | – | Cc1ccc(C)c(OCC(=O)Nc2ccc(-c3nc4cc(C)cc(C)c4o3)cc2)c1 |
| 280 nM | 8.9 µM | Cc1cc(C)c2oc(-c3ccc(NC(=O)COc4ccccc4C)cc3)nc2c1 |
| > 10000 nM | 32 µM | Cc1cc(C)c2oc(-c3ccc(NC(=O)COc4cccc(C(F)(F)F)c4)cc3)nc2c1 |
| > 32000 nM | – | Cc1ccccc1OCC(=O)Nc1ccc(-c2nc3ccc(Cl)cc3o2)cc1 |
| 31 nM | 3.2 µM | Cc1cc(C)c2oc(-c3ccc(NC(=O)COc4ccc(Br)cc4C)cc3)nc2c1 |
| > 10000 nM | – | COc1cccc(OCC(=O)Nc2ccc(-c3nc4cc(C)cc(C)c4o3)cc2)c1 |
| 56 nM | 2.5 µM | Cc1cc(C)c2oc(-c3ccc(NC(=O)COc4ccc(Cl)c5c4CCC5)cc3)nc2c1 |
| 88 nM | 11 µM | Cc1ccccc1OCC(=O)Nc1ccc(-c2nc3cc(Cl)cc(Cl)c3o2)cc1 |
| > 10000 nM | – | Cc1cc(C)c2oc(-c3ccc(NC(=O)COc4ccc(C#N)cc4)cc3)nc2c1 |
| 140 nM | 4.5 µM | Cc1ccc(OCC(=O)Nc2ccc(-c3nc4cc(C)cc(C)c4o3)cc2)c(C)c1 |
| 900 nM | 67 µM | Cc1cc(C)c2oc(-c3ccc(NC(=O)COc4cccc(C(C)C)c4)cc3)nc2c1 |
| 1300 nM | 27 µM | Cc1ccccc1OCC(=O)Nc1ccc(-c2nc3cc(CO)ccc3o2)cc1 |
| > 10000 nM | – | Cc1cc(C)c2oc(-c3ccc(NC(=O)COc4ccccc4Cl)cc3)nc2c1 |
| > 32000 nM | – | Cc1ccccc1OCC(=O)Nc1ccc(-c2nc3cc(F)ccc3o2)cc1 |
| > 32000 nM | – | Cc1ccccc1OCC(=O)Nc1ccc(-c2nc3cc(C(=O)O)ccc3o2)cc1 |
| > 10000 nM | – | Cc1cc(C)c2oc(-c3ccc(NC(=O)COc4cc(Cl)ccc4Cl)cc3)nc2c1 |
| 40 nM | 1.7 µM | Cc1cc(C)c2oc(-c3ccc(NC(=O)COc4ccc(Cl)c(C)c4C)cc3)nc2c1 |
| 96 nM | 2.7 µM | Cc1cc(C)c2oc(-c3ccc(NC(=O)COc4ccc(Cl)cc4C)cc3)nc2c1 |
| > 32000 nM | – | Cc1ccccc1OCC(=O)Nc1ccc(-c2nc3cc(C(C)(C)C)ccc3o2)cc1 |
| 240 nM | 26 µM | Cc1ccc(OCC(=O)Nc2ccc(-c3nc4cc(C)cc(C)c4o3)cc2)cc1 |
| 49 nM | 18 µM | Cc1ccccc1OCC(=O)Nc1ccc(-c2nc3cc(Cl)cc([N+](=O)[O-])c3o2)cc1 |

| IC50 [1] | IC50 [2] | Structure (SMILES) |
| --- | --- | --- |
| > 32000 nM | – | COc1ccc2oc(-c3ccc(NC(=O)COc4ccccc4C)cc3)nc2c1 |
| > 10000 nM | – | COc1ccc(OCC(=O)Nc2ccc(-c3nc4cc(C)cc(C)c4o3)cc2)cc1 |
| 1100 nM | 31 µM | Cc1ccc2oc(-c3ccc(NC(=O)COc4ccccc4C)cc3)nc2c1 |
| 1200 nM | 18 µM | CC(=O)c1ccc2oc(-c3ccc(NC(=O)COc4ccccc4C)cc3)nc2c1 |
| 57 nM | 3.3 µM | Cc1ccccc1OCC(=O)Nc1ccc(-c2nc3cc(C#N)ccc3o2)cc1 |
| 11000 nM | 71 µM | Cc1ccccc1OCC(=O)Nc1ccc(-c2nc3cc(OC(F)(F)F)ccc3o2)cc1 |
| > 10000 nM | – | Cc1cc(C)c2oc(-c3ccc(NC(=O)COc4ccc(C(F)(F)F)cc4)cc3)nc2c1 |
| 3600 nM | 61 µM | Cc1cc(C)c2oc(-c3ccc(NC(=O)COc4cccc(OC(F)(F)F)c4)cc3)nc2c1 |
| > 10000 nM | – | Cc1cc(C)cc(OCC(=O)Nc2ccc(-c3nc4cc(C)cc(C)c4o3)cc2)c1 |
| 10 nM | 0.91 µM | Cc1c(Cl)ccc(OCC(=O)Nc2ccc(-c3nc4cc(C#N)ccc4o3)cc2)c1C |
| 8300 nM | – | COc1ccccc1OCC(=O)Nc1ccc(-c2nc3cc(C)cc(C)c3o2)cc1 |
| > 32000 nM | – | Cc1ccccc1OCC(=O)Nc1ccc(-c2nc3cccc(C(=O)O)c3o2)cc1 |
| > 32000 nM | – | Cc1ccccc1OCC(=O)Nc1ccc(-c2nc3ccc([N+](=O)[O-])cc3o2)cc1 |
| 97 nM | 26 µM | Cc1ccccc1OCC(=O)Nc1ccc(-c2nc3cc(Cl)cc(Br)c3o2)cc1 |
| 2300 nM | – | Cc1cc(C)c2oc(-c3ccc(NC(=O)COc4cccc(-c5ccccc5)c4)cc3)nc2c1 |
| 590 nM | 51 µM | Cc1ccccc1OCC(=O)Nc1ccc(-c2nc3cc(C(F)(F)F)ccc3o2)cc1 |
| 9300 nM | – | CCS(=O)(=O)c1ccc2oc(-c3ccc(NC(=O)COc4ccccc4C)cc3)nc2c1 |
| 380 nM | 20 µM | Cc1cc(C)c2oc(-c3ccc(NC(=O)COc4ccc(Cl)cc4)cc3)nc2c1 |
| 1100 nM | 51 µM | Cc1cc(C)c2oc(-c3ccc(NC(=O)COc4cccc(F)c4)cc3)nc2c1 |
| > 32000 nM | – | Cc1ccccc1OCC(=O)Nc1ccc(-c2nc3c(C)cccc3o2)cc1 |
| 23 nM | 4.9 µM | Cc1cc(C)c2oc(-c3ccc(NC(=O)COc4ccc(F)cc4C)cc3)nc2c1 |

| IC50 [1] | IC50 [2] | Structure (SMILES) |
| --- | --- | --- |
| 240 nM | 27 µM | CC(=O)c1cc(C)cc2nc(-c3ccc(NC(=O)COc4ccccc4C)cc3)oc12 |
| 85 nM | 40 µM | Cc1cc(Cl)ccc1OCC(=O)Nc1ccc(-c2nc3cc(C#N)ccc3o2)cc1 |
| 7300 nM | 31 µM | Cc1cc(C)c2oc(-c3ccc(NC(=O)COc4ccc(F)cc4)cc3)nc2c1 |
| 13000 nM | – | Cc1ccc2nc(-c3ccc(NC(=O)COc4ccccc4C)cc3)oc2c1 |
| > 32000 nM | – | Cc1ccccc1OCC(=O)Nc1ccc(-c2nc3c([N+](=O)[O-])cccc3o2)cc1 |
| 200 nM | 13 µM | Cc1cc(C)c2oc(-c3ccc(NC(=O)COc4ccc(Cl)c(Cl)c4)cc3)nc2c1 |
| 1300 nM | 11 µM | Cc1cc(C)c2oc(-c3ccc(NC(=O)COc4cccc(Cl)c4)cc3)nc2c1 |
| > 10000 nM | – | Cc1cc(C)c2oc(-c3ccc(NC(=O)COc4c(C)cccc4Cl)cc3)nc2c1 |
| 200 nM | – | Cc1cc(C)c2oc(-c3ccc(NC(=O)COc4ccccc4OC(F)(F)F)cc3)nc2c1 |
| 3300 nM | – | Cc1cc(C)c2oc(-c3ccc(NC(=O)COc4ccccc4-c4ccccc4)cc3)nc2c1 |
| > 32000 nM | – | COc1ccc2nc(-c3ccc(NC(=O)COc4ccccc4C)cc3)oc2c1 |
| 11 nM | 4.3 µM | Cc1cc(Br)ccc1OCC(=O)Nc1ccc(-c2nc3cc(C#N)ccc3o2)cc1 |
| > 32000 nM | – | COC(=O)c1ccc2oc(-c3ccc(NC(=O)COc4ccccc4C)cc3)nc2c1 |
| 3500 nM | 80 µM | COC(=O)c1cccc2nc(-c3ccc(NC(=O)COc4ccccc4C)cc3)oc12 |
| 470 nM | 21 µM | Cc1ccccc1OCC(=O)Nc1ccc(-c2nc3cc(Cl)ccc3o2)cc1 |
| 85 nM | 3.5 µM | Cc1cc(C)c2oc(-c3ccc(NC(=O)COc4ccc(C)c5c4CCC5)cc3)nc2c1 |
| 440 nM | 28 µM | Cc1ccccc1OCC(=O)Nc1ccc(-c2nc3cc(Br)ccc3o2)cc1 |
| > 10000 nM | – | Cc1cc(C)c2oc(-c3ccc(NC(=O)COc4ccccc4C(C)C)cc3)nc2c1 |
| 1700 nM | 100 µM | Cc1ccccc1OCC(=O)Nc1ccc(-c2nc3cccc(C)c3o2)cc1 |
| 120 nM | 4.9 µM | Cc1cc(C)c2oc(-c3ccc(NC(=O)COc4ccc(Cl)c(C(F)(F)F)c4)cc3)nc2c1 |
| > 10000 nM | – | COC(=O)c1cccc(OCC(=O)Nc2ccc(-c3nc4cc(C)cc(C)c4o3)cc2)c1 |

| IC50 [1] | IC50 [2] | Structure (SMILES) |
| --- | --- | --- |
| 18 nM | 1.3 µM | COC(=O)c1c(Cl)ccc(OCC(=O)Nc2ccc(-c3nc4cc(C#N)ccc4o3)cc2)c1C |
| 15 nM | 3.2 µM | N#Cc1ccc2oc(-c3ccc(NC(=O)COc4ccc(Cl)c5c4CCC5)cc3)nc2c1 |
| > 10000 nM | – | Cc1cc(C)c2oc(-c3ccc(NC(=O)COc4ccccc4C#N)cc3)nc2c1 |
| > 10000 nM | – | Cc1cc(C)c2oc(-c3ccc(NC(=O)COc4ccc(-c5ccccc5)cc4)cc3)nc2c1 |
| 52 nM | 2.5 µM | Cc1ccccc1OCC(=O)Nc1ccc(-c2nc3cc(C#N)cc(Cl)c3o2)cc1 |
| 1900 nM | 91 µM | Cc1cc(C)c2oc(-c3ccc(NC(=O)COc4ccccc4C(F)(F)F)cc3)nc2c1 |
| 92 nM | 9.1 µM | Cc1ccccc1OCC(=O)Nc1ccc(-c2nc3cc(C(F)(F)F)cc(C(F)(F)F)c3o2)cc1 |
| > 32000 nM | – | COC(=O)c1ccc2nc(-c3ccc(NC(=O)COc4ccccc4C)cc3)oc2c1 |
| 1900 nM | – | Cc1ccccc1OCC(=O)Nc1ccc(-c2nc3cc(-c4ccccc4)ccc3o2)cc1 |
| 690 nM | 18 µM | Cc1cccc(OCC(=O)Nc2ccc(-c3nc4cc(C)cc(C)c4o3)cc2)c1 |
| > 32000 nM | – | Cc1ccccc1OCC(=O)Nc1ccc(-c2nc3ccc(N4CCCC4)cc3o2)cc1 |
| > 10000 nM | – | Cc1cc(C)c2oc(-c3ccc(NC(=O)COc4cccc(C#N)c4)cc3)nc2c1 |
| 18 nM | 4.3 µM | N#Cc1ccc2oc(-c3ccc(NC(=O)COc4ccc(Cl)c(C(F)(F)F)c4)cc3)nc2c1 |
| > 32000 nM | – | Cc1ccccc1OCC(=O)Nc1ccc(-c2nc3ccc(F)cc3o2)cc1 |
| 220 nM | – | COC(=O)c1ccccc1OCC(=O)Nc1ccc(-c2nc3cc(C)cc(C)c3o2)cc1 |
| 120 nM | 18 µM | Cc1ccccc1OCC(=O)Nc1ccc(-c2nc3cc([N+](=O)[O-])ccc3o2)cc1 |
| > 10000 nM | – | Cc1cc(C)c2oc(-c3ccc(NC(=O)COc4c(Cl)cccc4Cl)cc3)nc2c1 |
| > 10000 nM | – | Cc1cc(C)c2oc(-c3ccc(NC(=O)COc4ccc(OC(F)(F)F)cc4)cc3)nc2c1 |
| > 10000 nM | – | Cc1cc(C)c2oc(-c3ccc(NC(=O)COc4ccccc4F)cc3)nc2c1 |
| 42 nM | 2.8 µM | COC(=O)c1c(Cl)ccc(OCC(=O)Nc2ccc(-c3nc4cc(C)cc(C)c4o3)cc2)c1C |
